Here are results for seven molecules from US20230293405A1, “Compositions Comprising UV-Filters and One or More (Bio)-Alkanediols” (Symrise AG, priority 2020, published 2023).

The structures appear in SMILES notation.

Data set [1] is described as follows: Sensory properties of oil component blended with alkanediol, assessed by untrained panelists on the backside of the hand. It is filed as in vivo. The note with it: scale 1 (low) to 5 (high absorption). An excerpt: For evaluating the sensory behavior, oil components specified in the following Table 13 were blended with 1,2-heptanediol or 2,3-heptanediol or a mixture of 1,2-heptanediol and 2,3-heptanediol or 1,2-octanediol or 2,3-octanediol or a mixture of 1,2-octanediol and 2,3-octanediol (formulation) and assessed by untrained panelists in comparison to the oil component without addition of the specified alkanediols (placebo).
Test procedure: • Hands were pre-washed with liquid soap by following a defined procedure; • 30 μl of corresponding sample was applied on the backside of each hand (randomized); • After 30 s the spreading behavior of the respective formulation on skin was evaluated versus the respective oil component without 1,2-heptanediol on a scale from 1 to 5 (1=low spreading; 5=high spreading); • The samples were distributed with the fingertips of middle and forefinger with 2×5 cycles; • After 2 minutes, the fatty/greasy skin feeling was evaluated on a scale from 1 to 5 (1=low fatty/greasy skin feeling; 5=high fatty/greasy skin feeling); • Furthermore, the applicants were asked to assess the absorption, i.e. the impression of amount of remaining residue on the skin on a scale from 1 to 5 (1=low absorption; 5=high absorption).

Data set [2] can be described thus: Solubility of alkanediols in water (visual observation). The note with it: assessed at ambient temperature after 24 h storage at 5° C.
Source text: The water solubility of a substance is the saturation mass concentration of the substance in water at a given temperature. The determination of the solubility in water relates to essentially pure substances which are stable in water and not volatile.
For the determination of the water solubility of an alkanediol, water and different concentrations of the respective alkanediol were blended by stirring. […] The determination of whether the alkanediol has dissolved in water is based entirely on visual observation.
Where [3] appears, read: in Caprylic Capric Triglyceride (neutral oil).
The mark [4] stands for this setting: in Helianthus Annuus (Sunflower) Seed Oil.

`CCCCCC(O)CO` (stereo not shown) [1,2-heptanediol]: the Absorption/remaining residue with in data set [1] (in Argan Oil) was determined as 2.8; in data set [1] (in Avocado Oil) it was 2.6; in data set [1] (in Butyrospermum Parkii (Shea) Butter), 2.7; in data set [1] (in Cacao butter), 3.6; in data set [1] (setting [3]), 2.7; in data set [1] (in Castor Oil), 4. The Absorption/remaining residue with in data set [1] (in Cetearyl Nonanoate (SymMollient S)) was 2; in data set [1] (in Chlorella oil (biotech)) it was 3; in data set [1] (in Coconut Oil), 2; in data set [1] (in Ethylhexyl Methoxycinnamate (Neo Heliopan AV)) it was 3; in data set [1] (in Ethylhexyl Salicylate (Neo Heliopan OS)), 2.2; in data set [1] (in Grapeseed Oil), 2.8. Moreover, the Absorption/remaining residue with in data set [1] (setting [4]) is reported as 2; in data set [1] (in Hexyldecanol (Eutanol G)) it was 2.7; in data set [1] (in Homosalate (Neo Heliopan HMS)), 2.5; in data set [1] (in Isoamyl p-Methoxycinnamate (Neo Heliopan E 1000)), 2.5; in data set [1] (in Microalgae oil), 2.5; in data set [1] (in Octocrylene (Neo Heliopan 303)) it was 2.7. For the same molecule, the Absorption/remaining residue with in data set [1] (in Olive Oil) is listed as 2.4; in data set [1] (in Propanediol Dicaprylate/Dicaprate (Symollient PDCC)), 2.4; in data set [1] (in Prunus Amygdalus Dulcis (Sweet Almond) Oil), 2.2; in data set [1] (in Simmondsia Chinensis (Jojoba) Seed Oil) it was 2.5. Besides, the “Maximum solubility in water (% by weight)” value in data set [2] is on record as 2.5 % by weight.
With `CCCCCCC(O)CO` (stereo not shown) [Hydrolite ® 8, Caprylyl Glycol], in data set [2], the “Maximum solubility in water (% by weight)” value stood at 0.5 % by weight.
In the case of `CCCCCCC(O)CO` (stereo not shown) [1,2-octanediol], the Absorption/remaining residue with in data set [1] (in Argan Oil) was 2.6; in data set [1] (in Avocado Oil), 2.6; in data set [1] (in Cacao butter), 3; in data set [1] (in Coconut Oil) it was 3; in data set [1] (in Grapeseed Oil), 1.6; in data set [1] (setting [4]) it was 2. The same molecule came in with an Absorption/remaining residue with in data set [1] (in Olive Oil) of 2.6.
With `CCCCCCCC(O)CO` (stereo not shown) [1,2-nonanediol], the “Maximum solubility in water (% by weight)” value in data set [2] was found to be 0.1 % by weight.
In the case of `CCCCCC(O)C(C)O` (stereo not shown) [2,3-octanediol], the Absorption/remaining residue with in data set [1] (in Argan Oil) is 2.2; in data set [1] (in Avocado Oil), 2.4; in data set [1] (in Cacao butter), 2.8; in data set [1] (in Castor Oil), 3; in data set [1] (in Coconut Oil), 2.6; in data set [1] (in Grapeseed Oil) it was 2.4. Further, the Absorption/remaining residue with in data set [1] (setting [4]) amounted to 3.4; in data set [1] (in Olive Oil), 2.6. Moreover, the “Maximum solubility in water (% by weight)” value in data set [2] is 1.5 % by weight.
For the molecule `CCCCCCC(O)C(C)O` (stereo not shown) [2,3-nonanediol], the “Maximum solubility in water (% by weight)” value in data set [2] was determined as 0.3 % by weight.
Take `CCCCC(O)C(C)O` (stereo not shown) [2,3-heptanediol]: the Absorption/remaining residue with in data set [1] (in Argan Oil) came to 2.4; in data set [1] (in Avocado Oil) it was 2.4; in data set [1] (in Cacao butter), 3.2; in data set [1] (setting [3]), 3; in data set [1] (in Castor Oil), 3.8; in data set [1] (in Coconut Oil) it was 2.4. In addition, the figures for the Absorption/remaining residue with in data set [1] (in Grapeseed Oil), in data set [1] (setting [4]) and in data set [1] (in Olive Oil) were 2.2, 2.6 and 2, respectively. Besides, the “Maximum solubility in water (% by weight)” value in data set [2] amounted to 3.6 % by weight.
